Reference: US9139585B2 (Merck Sharp & Dohme Corp., priority 2011, dated 2015)
Read-outs that look alike come from different tables or passages of the source.

Columns and labels:
Kir1.1 (ROMK1) = Kir1.1 (ROMK1) (Homo sapiens (Human), UniProt P48048); test: Electrophysiology Assay (whole cell voltage clamp, IonWorks Quattro); type: cell-based; details: read-out: EP Assay IC50
Description: Several assays may be used to measure functional inhibition of the ROMK channel by compounds of the instant invention. One assay that can be used is an electrophysiology assay that measures the electrical current that is generated as potassium permeates through the channel.
Block of Kir1.1 (ROMK1) currents was examined by whole cell voltage clamp (Hamill et. al. Pfluegers Archives 391:85-100 (1981)) using the IonWorks® Quattro automated electrophysiology platform (Molecular Devices, Sunnyvale, Calif.). Chinese hamster ovary cells stably expressing Kir1.1 channels were maintained in T-75 flasks in cell culture media in a humidified 10% CO2 incubator at 37° C. Prior to an experiment, Kir1.1 expression was induced by overnight incubation with 1 mM sodium butyrate. On the day of the experiment, cells were dissociated with 2.5 ml of Versene™ (Invitrogen 15040-066) for approximately 6 minutes at 37° C. and suspended in 10 ml of bath solution containing (in mM): 150 NaCl, 10 KCl, 2.7 CaCl2, 0.5 MgCl2, 5 HEPES, pH 7.4. After centrifugation, the cell pellet was resuspended in approximately 4.0 ml of bath solution and placed in the IonWorks® instrument. The intracellular solution consisted of (in mM): 80 K gluconate, 40 KCl, 20 KF, 3.2 MgCl2, 3 EGTA, 5 Hepes, pH 7.4. Electrical access to the cytoplasm was achieved by perforation in 0.13 mg/ml amphotericin B for 4 minutes. Amphotericin B (Sigma A-4888) was prepared as a 40 mg/ml solution in DMSO.
Voltage protocols and current recordings were performed using the IonWorks® HT software/hardware system. Currents were sampled at 1 kHz. No correction for liquid junction potentials was used. The test pulse, consisting of a 100 ms step to 0 mV from a holding potential of −70 mV, followed by a 100 ms voltage ramp from −70 mV to +70 mV, was applied before and after a 6 minutes compound incubation period. Test compounds were prepared by diluting DMSO stock solutions into the bath solution at 3× the final concentration and placed in the instrument in 96-well polypropylene plates. Current amplitudes were measured using the IonWorks® software. To assess compound potency, the fractional block during the voltage step to 0 mV was calculated in Microsoft® Excel (Microsoft, Redmond, Calif.), and dose-response curves were fitted with Igor Pro 4.0 (WaveMetrics, Lake Oswego, Oreg.).

hROMK (hKir1.1) = hROMK (hKir1.1) (Homo sapiens (Human), UniProt P48048); test: Thallium Flux Assay (ROMK channel functional thallium flux, FLIPR-Tetra); type: cell-based
Sequence of hROMK (hKir1.1) (P48048 whole entry): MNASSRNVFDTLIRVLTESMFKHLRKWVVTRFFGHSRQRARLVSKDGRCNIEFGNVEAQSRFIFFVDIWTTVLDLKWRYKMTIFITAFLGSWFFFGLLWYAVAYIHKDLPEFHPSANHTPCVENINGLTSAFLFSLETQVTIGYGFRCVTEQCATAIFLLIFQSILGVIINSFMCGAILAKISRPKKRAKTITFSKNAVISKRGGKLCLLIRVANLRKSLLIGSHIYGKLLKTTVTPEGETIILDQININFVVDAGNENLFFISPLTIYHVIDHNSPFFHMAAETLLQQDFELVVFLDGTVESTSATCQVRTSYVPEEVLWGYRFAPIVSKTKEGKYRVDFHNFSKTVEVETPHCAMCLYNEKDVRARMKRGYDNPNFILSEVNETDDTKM
Description: Another ROMK functional assay makes use of the ability of thallium to permeate through open ROMK channels and increase the fluorescence of a dye previously loaded into the cells. Under control conditions, cells loaded with dye and exposed to thallium-containing medium display a time-dependent increase in fluorescence, the rate of which depends on number of functional channels. When cells are incubated in the presence of a channel inhibitor, the increase in fluorescence is attenuated in a concentration-dependent manner, and IC50 values of inhibition by compounds can be accurately determined. This assay has been established with cell lines expressing either human, or rat ROMK channels, and operates in 384-well format.
HEK293 cells stably expressing hROMK (hKir1.1) were grown at 37° C. in a 10% CO2 humidified incubator in complete growth media: Dulbecco's Modified Eagle Medium supplemented with non-essential amino acids, Penicillin/Streptomycin/Glutamine, G418 and FBS. At >80% confluency, the media was aspirated from the flask and the sample was rinsed with 10 ml Calcium/Magnesium-free PBS. […] To dislodge the cell, the side of the flask was gently banged with a hand. The cells were triturated completely and then transferred to 25 ml complete media. The sample was then centrifuged at 1,500 rpm for 6 minutes, followed by resuspension in complete growth media and then cell concentration was determined. […] Under ideal growth conditions and appropriate tissue culture practices, this cell line is stable for 40-45 passages.
FluxOR Kit Components (Invitrogen F10017)
• FluxOR™ Reagent (Component A) • FluxOR™ Assay Buffer (Component B)—10× Concentrate • PowerLoad™ Concentrate (Component C)—100× Concentrate • Probenecid (Component D)—Lyophilized sample is kept at −20° C. Water soluble, 100× after solubilization in 1 ml water. […] Store at 4° C. • Thallium sulfate (Tl2SO4) Concentrate (Component G)—50 mM in water. Store at 4° C. • DMSO (dimethyl sulfoxide, Component H)—1 ml (100%) Reagent Preparation— FluxOR Working Solutions • 1000× FluxOR™ Reagent: Reconstitute a vial of component A in 100 μl DMSO; Mix well; Store 10 μl aliquots at −20° C. • 1× FluxOR™ Assay Buffer: Dilute Component B 10-fold with water; Adjust pH to 7.4 with Hepes/NaOH; Filter and store at 4° C. • Probenecid/Assay Buffer: 100 ml of 1× FluxOR™ Assay Buffer; 1 ml of reconstituted component D; Store at 4° C. • Loading Buffer (per microplate): 10 μl 1000× FluxOR™ Reagent; 100 μl component C; 10 ml Probenecid/Assay Buffer • Compound Buffer (per microplate): 20 ml Probenecid/Assay Buffer; 0.3 mM ouabain (10 mM ouabain in water can be stored in amber bottle/aluminum foil at room temperature);
Test compound • 1× FluxOR™ Chloride-Free Buffer: Prepare 1× working solution in water. Can be stored at room temperature • Stimulant Buffer (prepared at 5× final concentration in 1× FluxOR™ Chloride-Free Buffer): 7.5 mM Thallium sulfate and 0.75 mM Potassium sulfate (to give a final assay concentration of 3 mM Thallium/0.3 mM Potassium). Store at 4° C. when not in use. If kept sterile, this solution is good for months. Assay Protocol—
The ROMK channel functional thallium flux assay is performed in 384 wells, using the FLIPR-Tetra instrument. HEK-hKir1.1 cells are seeded in Poly-D-Lysine microplates and kept in a 37° C.-10% CO2 incubator overnight. On the day of the experiment, the growth media is replaced with the FluxOR™ reagent loading buffer and incubated, protected from light, at ambient temperature (23-25° C.) for 90 min. The loading buffer is replaced with assay buffer±test compound followed by 30 min incubation at ambient temperature, where the Thallium/Potassium stimulant is added to the microplate.
• 1. Seed HEK-hKir1.1 cells (50 μl at 20,000 cells/well) in 384-well PDL coated Microplates • 2. Allow cells to adhere overnight in humidified 37° C./10% CO2 incubator • 3. Completely remove cell growth media from microplate and replace with 25 μl loading buffer • 4.

[1] = Chinese hamster ovary cells stably expressing Kir1.1, block during voltage step to 0 mV
[2] = HEK293 cells stably expressing hROMK (hKir1.1), read-out: Thallium Flux Assay IC50

Sequence of Kir1.1 (ROMK1) (P48048 whole entry, species assumed): as the sequence (P48048 whole entry) above

Compound	IC50 (Kir1.1 (ROMK1); [1]) [µM]	IC50 (hROMK (hKir1.1); [2]) [µM]	IC50 (Kir1.1 (ROMK1)) [µM]	IC50 (hROMK (hKir1.1); Thallium Flux Assay IC50) [µM]
COc1cc(C(O)CN2CCN(CC(O)c3ccc4c(c3)C[C@H](C)OC4=O)CC2)ncc1C#N (single isomer, unassigned) [Example 44A]	0.151	0.704	–	–
COc1cc(C(O)CN2CCN(CC(O)c3ccc4c(c3)C[C@H](C)OC4=O)CC2)ncc1C#N (single isomer, unassigned) [Example 44B]	0.018	0.243	–	–
COc1cc(C(O)CN2C3COCC2CN(C[C@H](O)c2ccc4c(c2C)COC4=O)C3)ncc1C#N (stereo in doubt) [Example 25, (R)-6-(1-Hydroxy-2-(7-(2-hydroxy-2-(4-methyl-1-oxo-1,3-dihydroisobenzofuran-5-yl)ethyl)-3-oxa-7,9 diazabicyclo[3.3.1]nonan-9-yl)ethyl)-4-methoxynicotinonitrile]	–	0.0205	0.11	–
COc1cc(C(O)CN2C3COCC2CN(C[C@H](O)c2ccc4c(c2C)COC4=O)C3)ncc1C#N (stereo in doubt) [Example 26, (R)-6-(1-Hydroxy-2-(7-(2-hydroxy-2-(4-methyl-1-oxo-1,3-dihydroisobenzofuran-5-yl)ethyl)-3-oxa-7,9 diazabicyclo[3.3.1]nonan-9-yl)ethyl)-4-methoxynicotinonitrile]	–	0.0492	0.071	–
Cc1c([C@@H](O)CN2CCN(C[C@H](O)c3ccc4c(c3C)COC4=O)C3(CCCC3)C2)ccc2c1COC2=O [Example 1, 5,5′-{6,9-Diazaspiro[4.5]decane-6,9-diylbis[(1R)-1-hydroxyethane-2,1-diyl]}bis(4-methyl-2-benzofuran-1(3H)-one)]	0.134	0.311	–	–
Cc1c([C@@H](O)CN2CCN(C[C@H](O)c3ccc4c(c3C)COC4=O)C(C)(C)C2)ccc2c1COC2=O [Example 2, 5,5′-{(2,2-dimethylpiperazine-1,4-diyl)bis[(1R)-1-hydroxyethane-2,1-diyl]}bis(4-methyl-2-benzofuran-1(3H)-one)]	0.041	0.113	–	–
Cc1c([C@@H](O)CN2C[C@@H]3C[C@H]2CN3S(=O)(=O)c2ccc(C#N)cc2)ccc2c1COC2=O [Example 3, 4-((1S,4S)-5-((R)-2-Hydroxy-2-(4-methyl-1-oxo-1,3-dihydroisobenzofuran-5-yl)ethyl)-2,5-diazabicyclo[2.2.1]heptan-2-ylsulfonyl)benzonitrile]	0.2	0.636	–	–
Cc1nc(C(O)CN2C3CCC2C2CCC3N2C[C@H](O)c2ccc3c(c2C)COC3=O)ccc1C#N (stereo partly drawn) [Example 7, 6-(1-Hydroxy-2-{10-[(2R)-2-hydroxy-2-(4-methyl-1-oxo-1,3-dihydro-2-benzofuran-5-yl)ethyl]-9,10-diazatricyclo[4.2.1.1^2,5]dec-9-yl}ethyl)-2-methylpyridine-3-carbonitrile]	0.045	0.115	–	–
Cc1c([C@@H](O)CN2[C@@H]3CC[C@H]2CN(c2ccc(C#N)cn2)C3)ccc2c1COC2=O [Example 10, 6-((1R,5S)-8-((R)-2-Hydroxy-2-(4-methyl-1-oxo-1,3-dihydroisobenzofuran-5-yl)ethyl)-3,8-diazabicyclo[3.2.1]octan-3-yl)nicotinonitrile]	0.316	0.64	–	–
Cc1c([C@@H](O)CN2CCN(c3ccc(C#N)cn3)CC2)ccc2c1COC2=O [Example 11, (R)-6-(4-(2-Hydroxy-2-(4-methyl-1-oxo-1,3-dihydroisobenzofuran-5-yl)ethyl)piperazin-1-yl)nicotinonitrile]	0.054	0.743	–	–
Cc1c([C@@H](O)CN2[C@@H]3CC[C@H]2CN(C(=O)c2ccc(-n4cnnn4)nc2)C3)ccc2c1COC2=O [Example 12, 5-((R)-2-((1R,5S)-3-(6-(1H-Tetrazol-1-yl)nicotinoyl)-3,8-diazabicyclo[3.2.1]octan-8-yl)-1-hydroxyethyl)-4-methylisobenzofuran-1 (3H)-one]	0.14	0.342	–	–
Cc1c([C@@H](O)CN2C3CCC2C2CCC3N2C(=O)c2ccc(-n3cnnn3)nc2)ccc2c1COC2=O [Example 13]	–	–	0.13	0.985
Cc1c([C@@H](O)CN2C[C@H]3CC[C@@H](C2)N3S(=O)(=O)c2ccc(-n3cnnn3)cc2)ccc2c1COC2=O [Example 16]	–	–	0.054	0.397
Cc1c([C@@H](O)CN2CC3COCC(C2)N3C[C@H](O)c2ccc3c(c2C)COC3=O)ccc2c1COC2=O [Example 18, 5,5′-(1R,1′R)-2,2′-(3-Oxa-7,9-diazabicyclo[3.3.1]nonane-7,9-diyl)bis(1-hydroxyethane-2,1-diyl)bis(4-methylisobenzofuran-1(3H)-one)]	0.03	0.0308	–	–
Cc1c([C@@H](O)CN2CC3COCC(C2)N3CC(O)c2ccc(C#N)cn2)ccc2c1COC2=O (stereo partly drawn) [Example 20, 6-(1-Hydroxy-2-(7-((R)-2-hydroxy-2-(4-methyl-1-oxo-1,3-dihydroisobenzofuran-5-yl)ethyl)-3-oxa-7,9 diazabicyclo[3.3.1]nonan-9-yl)ethyl)nicotinonitrile]	0.0295	0.078	–	–
Cc1c([C@@H](O)CN2C3COCC2CN(CCc2ccc4c(c2)C[C@@H](C)OC4=O)C3)ccc2c1COC2=O [Example 21, (R)-6-(2-(9-((R)-2-Hydroxy-2-(4-methyl-1-oxo-1,3-dihydroisobenzofuran-5-yl)ethyl)-3-oxa-7,9-diazabicyclo[3.3.1]nonan-7-yl)ethyl)-3-methylisochroman-1-one]	–	–	0.045	0.036
